Assay results from ChEMBL document CHEMBL1121990, “Synthesis and pharmacological activity of 6-aryl-2-azabicyclo[4.2.1]nonanes” (1982).

System: Mus musculus
Assay: Analgesic activity was determined after subcutaneous administration in mice using Eddy hot plate assay or Nilsen assay.
Type: functional
Details: sc

Structure (SMILES)	ED50
Br.C=CCN1CCCC2(c3cccc(OC)c3)CCC1C2 (stereo not drawn)	20 mg/kg
COc1ccc2c3c1O[C@H]1[C@@H](O)C=C[C@H]4[C@@H](C2)N(C)CC[C@@]341.COc1ccc2c3c1O[C@H]1[C@@H](O)C=C[C@H]4[C@@H](C2)N(C)CC[C@@]341.O.O=P(O)(O)O.O=P(O)(O)O [CODEINE PHOSPHATE]	6.8 mg/kg
COc1cccc(C23CCCN(C)C(CC2)C3)c1.O=C(O)C(=O)O (stereo not drawn)	5.7 mg/kg
Br.CN1CCCC2(c3cccc(O)c3)CCC1C2 (stereo not drawn)	16.2 mg/kg
Br.COc1cccc(C23CCCN(CCc4ccccc4)C(CC2)C3)c1 (stereo not drawn)	10.9 mg/kg
Br.Oc1cccc(C23CCCN(CCc4ccccc4)C(CC2)C3)c1 (stereo not drawn)	4.5 mg/kg
Br.COc1cccc(C23CCCNC(CC2)C3)c1 (stereo not drawn)	4 mg/kg
CN1CCCC2(c3ccccc3)CCC1C2.O=C(O)C(=O)O (stereo not drawn)	11.7 mg/kg
